Experimental data: patent US9062093B2, “Peptide compositions and methods for treating patients” (THE REGENTS OF THE UNIVERSITY OF MICHIGAN, priority 2011, dated 2015)

System: C57BL/6J mice
Assay: Blood glucose after oral load of glucose together with amino acid or peptide
Assay type: in vivo
Settings: for Blood glucose levels in mice loaded with glucose: non-diabetic mice, glucose 2 mg/g bw and peptide 1 mg/g bw orally
Protocol: An experiment was performed in adult male C57BL/6J mice purchased from Jackson Lab (Bar Harbor, Me.). Fasted mice were given glucose (2 mg/g body weight, diamond line in FIG. 1, n=10) or glycine (0.35 mg/g bw, square line in FIG. 1, n=10) and glucose by gavaging. Blood glucose was measured at 0, 30, 60, 90, and 120 min after giving glucose.
An experiment was performed in adult male C57BL/6J mice purchased from Jackson Lab. In the control group (diamond line in FIG. 13, n=10), glucose was orally administered at dose of 2 mg/g bw. In the Diapin and LLG group (square line or triangle line, n=9), glucose and Diapin or glucose and LLG were orally administered at dose of 2 mg/g bw and 1 mg/g bw, respectively. Blood glucose was measured at 0, 30, 60, 90 and 120 min after gavaging glucose and Diapin.
An experiment was performed in adult male C57BL/6J mice purchased from Jackson Lab. In the control group (diamond line in FIG. 14, n=10), glucose was orally administered at dose of 2 mg/g bw. […] Blood glucose was measured at 0, 30, 60, 90 and 120 min after gavaging glucose and GLG or GLL.
An experiment was performed in adult male C57BL/6J mice purchased from Jackson Lab. […] Blood glucose was measured at 0, 0.5, 1, 1.5 and 2 hours after gavaging glucose, Diapin and amidated Diapin.
An experiment was performed in adult male C57BL/6J mice purchased from Jackson Lab. […] Blood glucose was measured at 0, 0.5, 1, 1.5 and 2 hours after gavaging glucose, Diapin, and acetylated Diapin.
An experiment was performed in adult male C57BL/6J mice purchased from Jackson Lab. […] Blood glucose was measured at 0, 0.5, 1, 1.5 and 2 hours after gavaging glucose, Diapin and amidated/acetylated Diapin.
(§1) An experiment was performed in adult male C57BL/6J mice purchased from Jackson Lab. […] Blood glucose was measured at 30, 60, 90 and 120 min after giving glucose. […]
as §1

Compound | Blood glucose levels compared to the control group (glycine 0.35 mg/g bw and glucose 2 mg/g bw by gavage, fasted mice, any time point (0, 30, 60, 90, 120 min)) | Blood glucose levels in mice loaded with glucose
NCC(=O)O [glycine, reference compound] | not significantly changed | 
Glycine-Leucine-Leucine [GLL] |  | significantly reduce blood glucose levels
Leucine-Leucine-Glycine [LLG] |  | significantly reduce blood glucose levels
